Read-outs that look alike come from different tables or passages of the source.
Key:
DAGLα [1] = target: T1, DAGLα (Mus musculus (Mouse), UniProt Q6WQJ1); experiment: gel-based ABPP of mouse brain proteome, endogenous DAGLs, probe compound 58 and HT-01; type: biochemical
Protocol: (§1) Compounds 14 and 17 were evaluated for activity and selectivity against endogenous DAGLs and other serine hydrolases in the mouse brain proteome using a ABPP of mouse brain proteome assay as described in Example 16. These experiments were performed using three different activity-based probesprobe compound 58 (targets DAGLα and DAGLβ), HT-01 (targets DAGLα and DAGLβ), and FP-Rh (broad-spectrum serine hydrolase-directed probe fluorophosphonate-rhodamine).
(§2) Data represent average values±SEM; n=3 per group. […] Compounds 14 and 17 had minimal and negligible binding, respectively, to cannabinoid CB1 (CB1R) and CB2 (CB2R) receptors as measured with a radioligand binding assay (IC50 values>1 μM) (data not shown).

DAGLβ [2] = target: T2, DAGLβ (Mus musculus (Mouse), UniProt Q91WC9); experiment: as above; type: biochemical
Protocol: as §1, §2

serine hydrolases = experiment: ABPP selectivity against serine hydrolases in mouse brain proteome; type: biochemical
Protocol: as §1, §2
The selectivity of compounds 14 and 17 for additional serine hydrolases was assessed using probe FP-Rh (0.5 μM, 20 min; data not shown). Representative mouse brain serine hydrolases detected by FP-Rh were FAAH, MAGL, and ABHD6.

ABHD6 [3] = target: T3, ABHD6 (Mus musculus (Mouse), UniProt Q8R2Y0); experiment: in vivo inhibition, brain tissue analyzed by ABPP; settings: mice, intraperitoneal 3-50 mg/kg, 4 hr
Protocol: (§3) Mice were administered DAGL test compounds and the activity and selectivity of compounds 14 and 17 in vivo was assessed.
(§4) Compound 14, 17 or vehicle was administered intraperitoneally to male C57BL/6 mice across a dose range of 3-50 mg/kg. After 4 hr, the mice were sacrificed and brain tissue analyzed by ABPP, generally as described in Example 16, with compound probe 58, HT-01 probe, and FP-Rh probe.

DAGLα [4] = target: T1, DAGLα; experiment: in vivo inhibition, brain tissue analyzed by ABPP; settings: male C57BL/6 mice, intraperitoneal, 4 hr; for ED50: mouse, ip
Protocol: as §3, §4

DAGLβ [5] = target: T2, DAGLβ; experiment: in vivo inhibition, brain tissue analyzed by ABPP; settings: mice, intraperitoneal 3-50 mg/kg, 4 hr
Protocol: as §3, §4

ABHD6 [6] = target: T3, ABHD6; experiment: in vivo ABPP coupled to quantitative mass spectrometry (FP-biotin, ReDiMe); settings: brain proteomes of treated mice
Protocol: (§5) The extent of these target profiles were confirmed by performing ABPP coupled to high-resolution, quantitative mass spectrometry (MS). Briefly, brain proteomes from compound and vehicle-treated mice were incubated with the serine hydrolase directed activity-based probe FP-biotin, and probe-labeled enzymes were enriched by streptavidin chromatography, digested on bead with trypsin, and the resulting tryptic peptides modified by reductive dimethylation (ReDiMe) of lysine residues using isotopically heavy and light formaldehyde, respectively. In these experiments, inhibited serine hydrolases are identified as enzymes showing low heavy/light ReDiMe ratios.

CES1C = CES1C (Mus musculus (Mouse), UniProt P23953); experiment: as above; settings: brain proteomes of treated mice
Protocol: as §5

DAGLα [7] = target: T1, DAGLα; experiment: as above; settings: brain proteomes of treated mice
Protocol: as §5

DAGLβ [8] = target: T2, DAGLβ; experiment: as above; settings: brain proteomes of treated mice
Protocol: as §5

DAGLs = experiment: time-course of DAGL inhibition and recovery in mice, competitive ABPP with compound 58 probe; type: in vivo, mouse; settings: 50 mg/kg
Protocol: (§6) Inhibition of DAGL in mice with DAGL compounds 14 and 17 was investigated as a function of time as determined by competitive ABPP using the compound 58 probe (1 μM, 30 min).

DAGLα [9] = target: T1, DAGLα; experiment: as above; type: in vivo; settings: 3 mg/kg
Protocol: as §6

DAGLβ [10] = target: T2, DAGLβ; experiment: as above; type: in vivo; settings: 3 mg/kg
Protocol: as §6

[11] = test system: brain 2-AG and other DAGL-regulated lipids; experiment: brain lipid profiles of treated mice by LC-MS; type: in vivo, mouse; settings: for brain 2-AG levels / brain AA / brain AEA / brain C18:1/C20:4 DAG / brain PGD2 / brain PGE2 / brain SAG: 50 mg/kg i.p., 4 hr post-dosing
Protocol: Brain lipid profiles of mice treated with compounds 14, 17 and control compound 22.
Mice were treated with 50 mg/kg compound (i.p.), followed by lipid profiling using LC-MS at a 4 hr post-dosing. […] This depletion of brain 2-AG in compound 14 and 17-treated mice was dose-dependent (data not shown) and was observed within 2 h after injection. […] The changes in each lipid species were dose-dependent and were absent in compound 22 treated mice (FIGS. 6C, E, G, I, and K).

[12] = test system: DSE at parallel fiber to Purkinje cell synapses; experiment: depolarization-induced suppression of excitation (DSE) in acute cerebellar slices; settings: purkinje; bath application to cerebellar slices 30 min before recordings; read-out: half-maximal inhibition of DSE
Source text: Various forms of synaptic plasticity are regulated by 2-AG signaling, included depolarization-induced suppression of excitation (DSE) and inhibition (DSI). DSE was examined at parallel fiber (PF) to Purkinje cell (PC) synapses in acute cerebellar slices. A brief depolarization of PCs induced robust transient DSE at PF-PC synapses in vehicle treated cerebellar slices (FIG. 7A).

[13] = test system: LPS-induced neuroinflammatory responses (brain lipids, cytokines, body temperature); experiment: LPS-induced neuroinflammatory responses in mouse brain; type: in vivo; settings: mice; for LPS-induced elevation in brain 2-AG / LPS-induced elevation in brain PGE2 / LPS-stimulated brain cytokines: 50 mg/kg i.p. 60-90 min before LPS 20 mg/kg i.p., 6 hr; for LPS-induced anapyrexia: 50 mg/kg i.p. before LPS; for brain 2-AG under basal control conditions / brain AA under basal control conditions / brain PGE2 under basal control conditions: 50 mg/kg i.p., no LPS
Protocol: The effects of pharmacological and genetic inactivation of DAGL activity on neuroinflammatory responses (brain prostaglandin and cytokine production) induced by high-dose lipopolysaccharide treatment was examined.
Mice were treated with compounds 14, 17, control compound 22 or vehicle (50 mg/kg, i.p) for 60-90 min, followed by LPS (20 mg/kg, i.p., 6 hr) or vehicle. The mice were subsequently sacrificed and their brain lipid and cytokine profiles analyzed. […] The LPS-induced elevations in both 2-AG and PGE2 were suppressed in compound 14 and compound 17 treated mice and DAGLα/mice, but not compound 22 treated mice. […] LPS-induced anapyrexia was blunted in compound 14 and 17 treated mice (FIG. 8E) and DAGLα−/− mice (FIG. 8F), but not compound 22 treated mice (FIG. 8E).

DAGL enzymes = experiment: brain proteomes of treated mice conjugated to Cy5 fluorophore by CuAAC; type: in vivo, mouse

T1 sequence (Q6WQJ1 whole entry): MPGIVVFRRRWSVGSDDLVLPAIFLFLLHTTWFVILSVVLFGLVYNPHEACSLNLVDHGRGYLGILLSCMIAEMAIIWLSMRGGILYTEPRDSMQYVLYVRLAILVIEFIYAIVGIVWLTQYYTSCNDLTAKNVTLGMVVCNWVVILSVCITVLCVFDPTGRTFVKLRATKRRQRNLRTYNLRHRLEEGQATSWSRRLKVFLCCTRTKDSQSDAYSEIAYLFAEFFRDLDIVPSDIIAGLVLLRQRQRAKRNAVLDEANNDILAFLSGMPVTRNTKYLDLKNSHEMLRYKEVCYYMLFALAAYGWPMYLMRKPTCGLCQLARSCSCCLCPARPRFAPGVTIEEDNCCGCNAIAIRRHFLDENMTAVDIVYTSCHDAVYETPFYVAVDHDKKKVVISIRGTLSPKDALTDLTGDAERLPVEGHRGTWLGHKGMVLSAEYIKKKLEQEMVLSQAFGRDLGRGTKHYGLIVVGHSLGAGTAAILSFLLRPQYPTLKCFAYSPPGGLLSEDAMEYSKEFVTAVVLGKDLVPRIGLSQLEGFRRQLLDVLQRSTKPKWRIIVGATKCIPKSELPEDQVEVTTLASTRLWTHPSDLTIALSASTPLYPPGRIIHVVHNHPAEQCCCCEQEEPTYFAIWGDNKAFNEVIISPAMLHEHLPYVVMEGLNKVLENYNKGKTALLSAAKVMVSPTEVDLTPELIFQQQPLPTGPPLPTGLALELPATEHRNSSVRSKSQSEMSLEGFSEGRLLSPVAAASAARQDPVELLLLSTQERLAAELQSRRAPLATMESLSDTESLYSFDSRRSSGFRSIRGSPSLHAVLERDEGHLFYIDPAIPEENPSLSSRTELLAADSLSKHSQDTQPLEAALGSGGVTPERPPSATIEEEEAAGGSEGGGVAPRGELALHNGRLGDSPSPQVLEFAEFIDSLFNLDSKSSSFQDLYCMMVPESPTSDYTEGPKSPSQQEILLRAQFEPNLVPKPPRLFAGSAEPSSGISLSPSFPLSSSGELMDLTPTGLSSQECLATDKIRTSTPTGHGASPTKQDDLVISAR
T2 sequence (Q91WC9 whole entry): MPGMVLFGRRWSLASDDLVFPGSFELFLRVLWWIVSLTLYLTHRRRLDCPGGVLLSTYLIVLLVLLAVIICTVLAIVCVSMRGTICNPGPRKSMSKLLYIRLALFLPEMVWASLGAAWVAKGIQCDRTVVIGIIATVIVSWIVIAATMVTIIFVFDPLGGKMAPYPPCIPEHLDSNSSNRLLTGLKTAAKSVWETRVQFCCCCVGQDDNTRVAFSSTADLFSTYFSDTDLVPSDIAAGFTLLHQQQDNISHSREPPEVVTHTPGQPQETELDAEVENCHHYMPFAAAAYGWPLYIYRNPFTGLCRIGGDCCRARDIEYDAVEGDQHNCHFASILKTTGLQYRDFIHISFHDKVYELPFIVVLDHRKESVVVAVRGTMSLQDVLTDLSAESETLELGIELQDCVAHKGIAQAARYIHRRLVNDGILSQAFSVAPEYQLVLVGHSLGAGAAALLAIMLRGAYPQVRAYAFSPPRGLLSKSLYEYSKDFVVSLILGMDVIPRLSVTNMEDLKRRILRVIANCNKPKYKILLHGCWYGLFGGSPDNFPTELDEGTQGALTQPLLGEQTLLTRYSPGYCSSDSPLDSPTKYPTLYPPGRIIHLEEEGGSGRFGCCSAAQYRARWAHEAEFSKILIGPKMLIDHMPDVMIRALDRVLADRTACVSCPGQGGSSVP
T3 sequence (Q8R2Y0 whole entry): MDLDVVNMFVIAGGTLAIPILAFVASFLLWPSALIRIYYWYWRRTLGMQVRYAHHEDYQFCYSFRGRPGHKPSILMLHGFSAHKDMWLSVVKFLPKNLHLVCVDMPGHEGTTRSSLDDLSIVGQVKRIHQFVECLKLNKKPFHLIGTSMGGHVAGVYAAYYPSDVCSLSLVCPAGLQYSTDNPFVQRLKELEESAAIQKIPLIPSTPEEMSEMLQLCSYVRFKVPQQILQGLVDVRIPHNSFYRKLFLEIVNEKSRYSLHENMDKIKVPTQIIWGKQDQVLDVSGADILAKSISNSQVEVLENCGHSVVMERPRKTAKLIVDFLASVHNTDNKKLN
Sequence of CES1C (P23953 19-554): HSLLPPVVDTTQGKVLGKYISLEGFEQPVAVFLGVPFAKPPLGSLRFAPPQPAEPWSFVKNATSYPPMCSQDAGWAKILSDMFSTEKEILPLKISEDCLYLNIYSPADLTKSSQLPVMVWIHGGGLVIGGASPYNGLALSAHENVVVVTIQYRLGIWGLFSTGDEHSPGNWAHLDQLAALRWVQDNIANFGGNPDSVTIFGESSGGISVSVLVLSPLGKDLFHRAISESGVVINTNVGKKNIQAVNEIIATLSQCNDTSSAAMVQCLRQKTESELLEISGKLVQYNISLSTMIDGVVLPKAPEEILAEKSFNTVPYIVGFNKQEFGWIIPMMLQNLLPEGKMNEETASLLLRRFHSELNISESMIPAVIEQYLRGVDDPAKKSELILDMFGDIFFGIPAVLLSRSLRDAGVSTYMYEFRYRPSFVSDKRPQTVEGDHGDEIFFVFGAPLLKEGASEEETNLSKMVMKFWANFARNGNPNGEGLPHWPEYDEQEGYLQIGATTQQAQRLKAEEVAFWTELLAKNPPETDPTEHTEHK

| SMILES | selectivity, detectable serine hydrolase off-targets (serine hydrolases) | inhibition of ABHD6 in vivo (ABHD6 [3]) | dose with full inhibition of DAGLα (DAGLα [4]) [mg/kg] | ED50 (DAGLα [4]) [mg/kg] | inhibition of DAGLβ in vivo (DAGLβ [5]) | heavy/light ReDiMe ratio, ABHD6 (off-target) (ABHD6 [6]) | heavy/light ReDiMe ratio, CES1C (off-target) (CES1C) | inhibition of DAGLα by quantitative MS (DAGLα [7]) | inhibition of DAGLβ by quantitative MS (DAGLβ [8]) | duration of sustained inhibition of DAGLs (DAGLs) | DAGL activity at 24-hr post dosing (DAGLs) | time after injection at which depletion of brain 2-AG was observed [11] [h] | brain 2-AG levels [11] | brain AA [11] | brain AEA [11] | brain C18:1/C20:4 DAG [11] | brain PGD2 [11] | brain PGE2 [11] | brain SAG [11] | IC50 [12] [nM] | other results |
| --- | --- | --- | --- | --- | --- | --- | --- | --- | --- | --- | --- | --- | --- | --- | --- | --- | --- | --- | --- | --- | --- |
| CC(C)(C)OC(=O)N1CCN(C(=O)n2cc(-c3ccc(OC(F)(F)F)cc3)nn2)C(Cc2ccccc2)C1 (centres unmarked) [Compound 17, tert-Butyl 3-benzyl-4-(4-(4-(trifluoromethoxy)phenyl)-1H-1,2,3-triazole-1-carbonyl)piperazine-1-carboxylate] | selective for DAGLs, with the only detectable serine hydrolase off-targets being ABHD6 and PLA2G7 | inhibited | 30 to 50 | 5 to 10 | inhibited | < 0.5 | < 0.5 | complete inhibition | partially | up to 8 hr | partial recovery | ≤ 2 | reduced | reductions | reductions | elevations | reductions | reductions | elevations | 180 | IC50 (DAGLα [1]; mouse brain proteome, probes 1 μM, 30 min, read-out: IC50, DAGLα labeling by compound 58 and HT-01): 0.5 to 1.2 nM; IC50 (DAGLβ [2]; mouse brain proteome, probes 1 μM, 30 min, read-out: IC50, DAGLβ labeling by compound 58 and HT-01): 2.3 to 4.8 nM; time by which DAGLα enzyme activity recovered (DAGLα [9]): ≤ 4 h; time to substantial inhibition of DAGLα after administration (DAGLα [9]): ≤ 30 min; inhibition of DAGLβ (DAGLβ [10]): inhibited; LPS-induced elevation in brain 2-AG [13]: suppressed; LPS-induced elevation in brain PGE2 [13]: suppressed; LPS-stimulated brain cytokines [13]: reductions; LPS-induced anapyrexia [13]: blunted; brain 2-AG under basal control conditions [13]: severely depleted; brain AA under basal control conditions [13]: severely depleted; brain PGE2 under basal control conditions [13]: severely depleted |
| C#CCO[C@@H]1CC[C@H](Cc2ccccc2)N(C(=O)n2ncc(C(O)(c3ccc(F)cc3)c3ccc(F)cc3)n2)C1 [Compound 14, ((2R,5R)-2-Benzyl-5-(prop-2-ynyloxy)piperidin-1-yl)(4-(bis(4-fluorophenyl)(hydroxy)methyl)-2H-1,2,3-triazol-2-yl)methanone] | selective for DAGLs, with the only detectable serine hydrolase off-targets being ABHD6 and PLA2G7 | inhibited | 30 to 50 | 5 to 10 | inhibited | < 0.5 | < 0.5 | complete inhibition | strongly | up to 8 hr | partial recovery | ≤ 2 | reduced | reductions | reductions | elevations | reductions | reductions | elevations | 1100 | IC50 (DAGLα [1]): 0.5 to 1.2 nM; IC50 (DAGLβ [2]): 2.3 to 4.8 nM; labeling of DAGL enzymes in brain proteomes of treated mice (DAGL enzymes): direct, dose-dependent labeling; LPS-induced elevation in brain 2-AG [13]: suppressed; LPS-induced elevation in brain PGE2 [13]: suppressed; LPS-stimulated brain cytokines [13]: reductions; LPS-induced anapyrexia [13]: blunted; brain 2-AG under basal control conditions [13]: severely depleted; brain AA under basal control conditions [13]: severely depleted; brain PGE2 under basal control conditions [13]: severely depleted |

Source: US10583137B2, “Triazole DAGLα inhibitors” (THE SCRIPPS RESEARCH INSTITUTE, priority 2015, dated 2020)
